In ChEMBL document CHEMBL1201862, “PubChem BioAssay data set” (2004):
Calls of active or inactive are those of the source.

Experiments:
[1] = target: Diphosphomevalonate decarboxylase (Streptococcus pneumoniae serotype 2 (strain D39 / NCTC 7466), UniProt Q9FD53); assay: S. pneumoniae DPM-DC inhibition retest, confirmation, biochemical, cuvette format, coupled NADH fluorescence (AID 1028); format: functional
[2] = target: Voltage-gated inwardly rectifying potassium channel KCNH2 (Homo sapiens, UniProt Q12809); assay: hERG protection from proarrhythmic block, potency, dose response, cell-based, thallium flux (AID 2121); format: ADME
[3] = tested on: INS1; assay: beta cell apoptosis inhibitors, cytokine rescue, dose response, luminescence, retest (AID 449756); format: functional, cell-based; settings: Rattus norvegicus;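 also: cell death triggered by IL-1 beta plus TNF-alpha plus IFN-gamma mixture; protective hits raise ATP signal compared with cytokine alone wells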
[4] = Luminescent dose response cell-based high throughput screening assay for inhibitors of the Janus kinase 2 mutant JAK2V617F. [Related pubchem assays: 1446 (Primary screen.), 1521 (Confirmation assay.), 1486 (Counter screen.)]; format: functional
[5] = target: T1, Estrogen receptor beta (Homo sapiens, UniProt Q92731);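 also: recombinant ER-beta bound to coactivator SRC1 peptide in presence of estradiol agonist; inhibitors block coactivator peptide binding and lower the FRET signal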
[6] = target: Estrogen receptor (Homo sapiens, UniProt P03372);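 also: potency for inhibiting coactivator peptide recruitment to the receptor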
[7] = target: T1, Estrogen receptor beta; assay: ERβ–SRC-3 coactivator interaction inhibitors, confirmation, orthogonal assay, biochemical, ELISA, streptavidin-HRP readout (AID 1060)
[8] = growth suppression of beta-catenin-knockout colon cells, dose response, cell-based, HCT116, human colon tumor (AID 1045); format: functional;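 also: HCT116 colon tumor cells with beta catenin knocked out; cells exposed to compound for 60 hours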
[9] = target: Mitogen-activated protein kinase 10 (Homo sapiens, UniProt P53779); assay: Dose response biochemical screening assay for inhibitors of c-Jun N-Terminal Kinase 3 (JNK3). [Related pubchem assays: 746 ]
[10] = growth suppression of PTEN-null colon cells, dose response, cell-based, HCT116 PTEN knockout (AID 1047); format: functional;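 also: HCT116 colon tumor cells with PTEN knocked out; cells exposed to compound for 60 hours before readout; potency for loss of cell viability measured by luminescence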
[11] = target: Protein-tyrosine kinase 2-beta (Homo sapiens, UniProt Q14289);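 also: potency of inhibitors of PYK2 kinase phosphorylation of poly-GT substrate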
[12] = target: T2, Dual specificity protein phosphatase 6 (Rattus norvegicus, UniProt Q64346); assay: MKP-3 phosphatase inhibitors, primary screen, biochemical, rat enzyme, in vitro (AID 425)
T2 sequence (Q64346 whole entry): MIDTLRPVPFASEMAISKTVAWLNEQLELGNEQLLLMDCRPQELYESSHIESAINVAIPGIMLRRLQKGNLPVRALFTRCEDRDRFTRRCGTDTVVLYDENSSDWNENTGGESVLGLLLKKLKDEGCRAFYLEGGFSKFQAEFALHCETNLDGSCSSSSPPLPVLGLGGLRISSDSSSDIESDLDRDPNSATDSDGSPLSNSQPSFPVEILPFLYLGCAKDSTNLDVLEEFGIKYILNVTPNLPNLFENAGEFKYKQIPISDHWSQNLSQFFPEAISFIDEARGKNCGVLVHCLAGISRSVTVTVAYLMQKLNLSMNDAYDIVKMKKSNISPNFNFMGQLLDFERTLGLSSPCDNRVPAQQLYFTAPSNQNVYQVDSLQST

[13] = target: Transitional endoplasmic reticulum ATPase (Homo sapiens, UniProt P55072, C522A); assay: Luminescence counterscreen assay for p97 inhibitors: dose response biochemical high throughput screening assay to identify inhibitors of the C522A mutant p97 ATPase: synthesized compounds. [Related pubchem assays: 1481, 1517, 1551 ]
[14] = target: Transitional endoplasmic reticulum ATPase (Homo sapiens, UniProt P55072); assay: Luminescence dose response biochemical high throughput screening assay for inhibitors of the p97 ATPase: synthesized compounds. [Related pubchem assays: 1481, 1517 ]
[15] = Vero cell cytotoxicity, dose response, cytotoxicity control for Vif-APOBEC3G degradation inhibitor project, Vero cells (AID 1117358); format: functional; settings: Human immunodeficiency virus 1, Vero
[16] = target: Polyadenylate-binding protein 1 (Homo sapiens, UniProt P11940); assay: PABP poly(A) RNA binding inhibitors, primary screen, biochemical, fluorescence polarization, uHTS (AID 2014)
[17] = Luminescence Cell-Based Dose Confirmation HTS to Identify Inhibitors of Platelet Dense Granule Release. [Related pubchem assays: 1663 (Primary HTS), 1678 (Summary of Project)]; format: functional
[18] = target: Luciferin 4-monooxygenase (Photinus pyralis, UniProt P08659); assay: firefly luciferase enzyme inhibitors, dose response, biochemical, luminescence (AID 1891)
[19] = C. albicans growth with fluconazole, confirmation, fluorescence, retest (AID 2467); format: functional, cell-based
[20] = NIH-3T3 fibroblast cytotoxicity, dose response, cytotoxicity control, cell-based, fluorescence, Alamar Blue, secondary assay (AID 2327); format: functional;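 also: NIH-3T3 mouse fibroblasts cultured with fluconazole at 8 µg/mL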
[21] = target: Protein Tat (Human immunodeficiency virus type 1 group M subtype B (isolate HXB2)(HIV-1), UniProt P04608); format: functional;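 also: tat binding to TAR RNA read out by fluorescence polarization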
[22] = target: Genome polyprotein (dengue virus type 2, UniProt P29990); assay: Dengue-2 NS5 methyltransferase inhibitors, primary screen, biochemical, confirmation dose response (AID 588689); format: functional
[23] = target: T3, Mannose-6-phosphate isomerase (Homo sapiens, UniProt P34949); assay: inhibitors of human PMI, primary screen, biochemical, fluorescence intensity, coupled assay (AID 1209)
T3 sequence (P34949 whole entry): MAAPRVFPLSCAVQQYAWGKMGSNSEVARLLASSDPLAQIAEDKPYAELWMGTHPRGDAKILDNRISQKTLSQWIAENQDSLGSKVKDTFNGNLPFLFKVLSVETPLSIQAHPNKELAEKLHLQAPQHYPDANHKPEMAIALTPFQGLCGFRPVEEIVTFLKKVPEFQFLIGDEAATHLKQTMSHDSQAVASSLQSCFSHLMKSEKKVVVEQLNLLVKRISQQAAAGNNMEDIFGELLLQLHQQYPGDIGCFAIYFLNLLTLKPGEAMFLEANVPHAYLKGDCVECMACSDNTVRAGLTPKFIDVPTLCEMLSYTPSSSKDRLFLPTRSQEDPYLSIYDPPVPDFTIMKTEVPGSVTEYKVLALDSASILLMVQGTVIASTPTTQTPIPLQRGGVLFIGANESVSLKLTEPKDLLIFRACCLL

[24] = target: Eukaryotic translation initiation factor 4H (Homo sapiens, UniProt Q15056); assay: human eIF4H binding inhibitors, primary screen, translation initiation inhibitor project, biochemical, uHTS, fluorescence polarization (AID 2012)
[25] = target: Induced myeloid leukemia cell differentiation protein Mcl-1 (Homo sapiens, UniProt Q07820); format: functional
[26] = target: T4, Long-chain-fatty-acid--AMP ligase FadD28 (Mycobacterium tuberculosis, UniProt P9WQ59); assay: Fluorescence polarization aasay to screen for inhibitors that compete for the binding of FadD28 to a bisubstrate Measured in Biochemical System Using Plate Reader - 2147-01_Inhibitor_Dose_CherryPick_Activity.; format: functional, Mycobacterium tuberculosis H37Rv
T4 sequence (P9WQ59 whole entry): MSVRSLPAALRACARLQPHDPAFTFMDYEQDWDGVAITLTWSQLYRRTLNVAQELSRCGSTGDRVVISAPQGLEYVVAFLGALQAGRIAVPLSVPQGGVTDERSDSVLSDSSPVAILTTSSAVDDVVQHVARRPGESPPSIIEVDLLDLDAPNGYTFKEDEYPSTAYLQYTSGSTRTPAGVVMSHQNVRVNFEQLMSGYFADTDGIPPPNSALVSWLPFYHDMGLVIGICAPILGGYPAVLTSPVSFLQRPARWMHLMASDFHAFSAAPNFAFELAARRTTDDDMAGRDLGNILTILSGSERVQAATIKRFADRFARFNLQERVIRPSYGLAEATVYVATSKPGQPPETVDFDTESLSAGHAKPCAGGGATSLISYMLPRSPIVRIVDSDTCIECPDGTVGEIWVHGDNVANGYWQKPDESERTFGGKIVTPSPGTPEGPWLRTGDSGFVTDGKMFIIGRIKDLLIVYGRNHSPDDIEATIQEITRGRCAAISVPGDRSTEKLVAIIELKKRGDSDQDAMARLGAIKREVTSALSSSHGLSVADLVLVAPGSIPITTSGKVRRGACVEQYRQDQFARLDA

[27] = tested on: Vero; assay: Vero cell cytotoxicity, cytotoxicity control for flavivirus capping enzyme inhibitors (AID 588742); format: functional; settings: Chlorocebus sabaeus
[28] = THP-1 cell cytotoxicity, dose response, cytotoxicity control for Vif-APOBEC3G degradation inhibitor project, THP-1 cells (AID 1117359); format: functional; settings: Human immunodeficiency virus 1, THP-1
[29] = target: Sphingosine 1-phosphate receptor 2 (Homo sapiens, UniProt O95136); assay: Dose Response Cell Based Assay for Agonists of the S1P2 Receptor of Purchased Analogues. [Related pubchem assays: 729, 843, 854, 736 ]; format: functional
[30] = cytotoxicity in HEK-293T cells, dose response, cytotoxicity control for TCR NF-kB inhibitor project, luminescence, T-cell screen hits (AID 489026); format: functional, cell-based;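 also: cells exposed to compound about 14 hours before the viability readout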
[31] = tested on: Vero; assay: host cell cytotoxicity of antiviral hits, dose response, cytotoxicity control for West Nile virus antiviral project, secondary assay (AID 1650); format: functional; settings: Chlorocebus sabaeus
[32] = target: T5, Protein skinhead-1 (Caenorhabditis elegans, UniProt P34707); format: functional
T5 sequence (P34707 whole entry): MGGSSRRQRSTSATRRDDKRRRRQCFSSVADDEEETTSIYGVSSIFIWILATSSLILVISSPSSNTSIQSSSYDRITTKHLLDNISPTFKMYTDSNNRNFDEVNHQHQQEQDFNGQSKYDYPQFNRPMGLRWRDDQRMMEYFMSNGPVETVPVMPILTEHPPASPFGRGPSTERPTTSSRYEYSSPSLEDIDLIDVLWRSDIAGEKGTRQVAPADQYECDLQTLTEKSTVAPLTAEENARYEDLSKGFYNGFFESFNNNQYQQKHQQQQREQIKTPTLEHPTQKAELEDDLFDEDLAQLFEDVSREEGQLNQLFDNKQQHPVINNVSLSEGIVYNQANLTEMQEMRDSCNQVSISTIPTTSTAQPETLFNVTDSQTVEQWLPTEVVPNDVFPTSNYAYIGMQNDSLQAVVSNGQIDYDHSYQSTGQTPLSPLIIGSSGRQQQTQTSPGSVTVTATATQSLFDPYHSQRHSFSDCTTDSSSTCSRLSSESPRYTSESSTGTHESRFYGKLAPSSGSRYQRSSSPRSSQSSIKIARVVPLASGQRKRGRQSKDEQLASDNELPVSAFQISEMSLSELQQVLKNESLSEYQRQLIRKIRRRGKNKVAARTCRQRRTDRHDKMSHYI

[33] = target: Neuropeptide Y receptor type 2 (Homo sapiens, UniProt P49146); format: functional, cell-based;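 also: HEK293 cells expressing the receptor and a CNG channel; stimulus was NPY near EC95 followed by isoproterenol to raise cAMP; antagonist potency measured as restoring cAMP signal that NPY suppresses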
[34] = target: Neuropeptide Y receptor type 1 (Homo sapiens, UniProt P25929); format: functional;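 also: HEK293 cells with a CNG channel challenged with NPY then isoproterenol; potency as antagonist that reverses NPY suppression of cAMP signal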
[35] = target: T6, Fatty acid synthase (Homo sapiens, UniProt P49327); assay: FAS thioesterase domain inhibitors, dose response, biochemical, kinetic fluorescence intensity (AID 624326); format: functional;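 also: rate of fluorescence rise from hydrolysis of a fluorogenic O-methyl fluorescein ester substrate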
[36] = target: T6, Fatty acid synthase; assay: FAS thioesterase domain inhibitors, dose response, biochemical, endpoint fluorescence intensity, uHTS hits (AID 624327); format: functional;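 also: fluorescence from hydrolysis of an O-methyl fluorescein acyl ester substrate by the enzyme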
[37] = target: Genome polyprotein (Hepatitis C virus, UniProt Q2Q167); assay: HCV core protein dimerization inhibitors, dose response, biochemical, TR-FRET (AID 2159); parameters: species or system Hepacivirus hominis;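 also: blocks dimerization of HCV core protein measured by TR-FRET between tagged core106 pairs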
[38] = target: T7, E3 ubiquitin-protein ligase XIAP (Homo sapiens, UniProt P98170); assay: Counter Screen using XIAP-Bir3 for Chemical Antagonists of Bir1/2 domains of IAP-family anti-apoptotic proteins. [Related pubchem assays (depositor defined):AID1018, AID1449, AID1514, AID1638, AID1749, AID1750, AID488957, AID488963]
[39] = target: T7, E3 ubiquitin-protein ligase XIAP; assay: XIAP antagonists, biochemical, IAP family, fluorescence polarization (AID 1018); format: functional
[40] = tested on: H9c2; assay: cells; format: functional, cell-based; settings: Rattus norvegicus, H9c2, Myocardium;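 also: confirmatory concentration-response retest of ultra-high-throughput screening hits for modulation of myocardial damage; cell death induced by hydrogen peroxide oxidative stress; compound pretreatment for 60 min then peroxide exposure for 2 h; potency is for protecting the cells against peroxide damage rather than for killing them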
[41] = target: 5-hydroxytryptamine receptor 1A (Homo sapiens, UniProt P08908); format: functional

T7 sequence (P98170 whole entry): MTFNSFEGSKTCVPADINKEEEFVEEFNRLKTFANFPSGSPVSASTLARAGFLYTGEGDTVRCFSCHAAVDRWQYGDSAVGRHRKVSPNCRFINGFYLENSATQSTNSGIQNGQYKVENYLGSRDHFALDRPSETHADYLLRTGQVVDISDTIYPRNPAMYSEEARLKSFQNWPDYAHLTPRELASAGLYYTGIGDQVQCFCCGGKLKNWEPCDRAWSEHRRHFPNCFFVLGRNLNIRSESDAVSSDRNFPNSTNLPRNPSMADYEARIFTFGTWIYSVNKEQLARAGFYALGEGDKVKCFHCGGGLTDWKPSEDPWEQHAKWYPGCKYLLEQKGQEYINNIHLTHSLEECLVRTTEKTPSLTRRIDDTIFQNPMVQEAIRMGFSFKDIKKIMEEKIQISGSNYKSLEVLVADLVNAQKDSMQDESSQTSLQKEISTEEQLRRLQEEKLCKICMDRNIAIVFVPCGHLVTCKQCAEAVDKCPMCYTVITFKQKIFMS
T1 sequence (Q92731 whole entry): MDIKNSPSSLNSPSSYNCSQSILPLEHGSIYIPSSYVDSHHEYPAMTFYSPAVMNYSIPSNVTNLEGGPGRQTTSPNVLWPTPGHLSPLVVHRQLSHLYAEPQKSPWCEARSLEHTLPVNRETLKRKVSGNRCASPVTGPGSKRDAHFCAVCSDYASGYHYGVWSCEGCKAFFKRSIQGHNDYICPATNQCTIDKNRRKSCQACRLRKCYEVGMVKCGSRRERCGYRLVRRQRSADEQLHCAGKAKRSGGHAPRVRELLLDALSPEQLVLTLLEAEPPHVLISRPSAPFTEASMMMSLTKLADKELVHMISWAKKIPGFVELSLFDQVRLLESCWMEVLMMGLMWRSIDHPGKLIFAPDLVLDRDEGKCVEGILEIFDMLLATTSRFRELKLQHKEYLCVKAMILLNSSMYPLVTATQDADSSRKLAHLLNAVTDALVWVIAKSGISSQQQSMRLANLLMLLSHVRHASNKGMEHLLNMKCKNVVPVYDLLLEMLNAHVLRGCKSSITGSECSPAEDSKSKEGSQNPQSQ
T6 sequence (P49327 whole entry, the tested form may be a part): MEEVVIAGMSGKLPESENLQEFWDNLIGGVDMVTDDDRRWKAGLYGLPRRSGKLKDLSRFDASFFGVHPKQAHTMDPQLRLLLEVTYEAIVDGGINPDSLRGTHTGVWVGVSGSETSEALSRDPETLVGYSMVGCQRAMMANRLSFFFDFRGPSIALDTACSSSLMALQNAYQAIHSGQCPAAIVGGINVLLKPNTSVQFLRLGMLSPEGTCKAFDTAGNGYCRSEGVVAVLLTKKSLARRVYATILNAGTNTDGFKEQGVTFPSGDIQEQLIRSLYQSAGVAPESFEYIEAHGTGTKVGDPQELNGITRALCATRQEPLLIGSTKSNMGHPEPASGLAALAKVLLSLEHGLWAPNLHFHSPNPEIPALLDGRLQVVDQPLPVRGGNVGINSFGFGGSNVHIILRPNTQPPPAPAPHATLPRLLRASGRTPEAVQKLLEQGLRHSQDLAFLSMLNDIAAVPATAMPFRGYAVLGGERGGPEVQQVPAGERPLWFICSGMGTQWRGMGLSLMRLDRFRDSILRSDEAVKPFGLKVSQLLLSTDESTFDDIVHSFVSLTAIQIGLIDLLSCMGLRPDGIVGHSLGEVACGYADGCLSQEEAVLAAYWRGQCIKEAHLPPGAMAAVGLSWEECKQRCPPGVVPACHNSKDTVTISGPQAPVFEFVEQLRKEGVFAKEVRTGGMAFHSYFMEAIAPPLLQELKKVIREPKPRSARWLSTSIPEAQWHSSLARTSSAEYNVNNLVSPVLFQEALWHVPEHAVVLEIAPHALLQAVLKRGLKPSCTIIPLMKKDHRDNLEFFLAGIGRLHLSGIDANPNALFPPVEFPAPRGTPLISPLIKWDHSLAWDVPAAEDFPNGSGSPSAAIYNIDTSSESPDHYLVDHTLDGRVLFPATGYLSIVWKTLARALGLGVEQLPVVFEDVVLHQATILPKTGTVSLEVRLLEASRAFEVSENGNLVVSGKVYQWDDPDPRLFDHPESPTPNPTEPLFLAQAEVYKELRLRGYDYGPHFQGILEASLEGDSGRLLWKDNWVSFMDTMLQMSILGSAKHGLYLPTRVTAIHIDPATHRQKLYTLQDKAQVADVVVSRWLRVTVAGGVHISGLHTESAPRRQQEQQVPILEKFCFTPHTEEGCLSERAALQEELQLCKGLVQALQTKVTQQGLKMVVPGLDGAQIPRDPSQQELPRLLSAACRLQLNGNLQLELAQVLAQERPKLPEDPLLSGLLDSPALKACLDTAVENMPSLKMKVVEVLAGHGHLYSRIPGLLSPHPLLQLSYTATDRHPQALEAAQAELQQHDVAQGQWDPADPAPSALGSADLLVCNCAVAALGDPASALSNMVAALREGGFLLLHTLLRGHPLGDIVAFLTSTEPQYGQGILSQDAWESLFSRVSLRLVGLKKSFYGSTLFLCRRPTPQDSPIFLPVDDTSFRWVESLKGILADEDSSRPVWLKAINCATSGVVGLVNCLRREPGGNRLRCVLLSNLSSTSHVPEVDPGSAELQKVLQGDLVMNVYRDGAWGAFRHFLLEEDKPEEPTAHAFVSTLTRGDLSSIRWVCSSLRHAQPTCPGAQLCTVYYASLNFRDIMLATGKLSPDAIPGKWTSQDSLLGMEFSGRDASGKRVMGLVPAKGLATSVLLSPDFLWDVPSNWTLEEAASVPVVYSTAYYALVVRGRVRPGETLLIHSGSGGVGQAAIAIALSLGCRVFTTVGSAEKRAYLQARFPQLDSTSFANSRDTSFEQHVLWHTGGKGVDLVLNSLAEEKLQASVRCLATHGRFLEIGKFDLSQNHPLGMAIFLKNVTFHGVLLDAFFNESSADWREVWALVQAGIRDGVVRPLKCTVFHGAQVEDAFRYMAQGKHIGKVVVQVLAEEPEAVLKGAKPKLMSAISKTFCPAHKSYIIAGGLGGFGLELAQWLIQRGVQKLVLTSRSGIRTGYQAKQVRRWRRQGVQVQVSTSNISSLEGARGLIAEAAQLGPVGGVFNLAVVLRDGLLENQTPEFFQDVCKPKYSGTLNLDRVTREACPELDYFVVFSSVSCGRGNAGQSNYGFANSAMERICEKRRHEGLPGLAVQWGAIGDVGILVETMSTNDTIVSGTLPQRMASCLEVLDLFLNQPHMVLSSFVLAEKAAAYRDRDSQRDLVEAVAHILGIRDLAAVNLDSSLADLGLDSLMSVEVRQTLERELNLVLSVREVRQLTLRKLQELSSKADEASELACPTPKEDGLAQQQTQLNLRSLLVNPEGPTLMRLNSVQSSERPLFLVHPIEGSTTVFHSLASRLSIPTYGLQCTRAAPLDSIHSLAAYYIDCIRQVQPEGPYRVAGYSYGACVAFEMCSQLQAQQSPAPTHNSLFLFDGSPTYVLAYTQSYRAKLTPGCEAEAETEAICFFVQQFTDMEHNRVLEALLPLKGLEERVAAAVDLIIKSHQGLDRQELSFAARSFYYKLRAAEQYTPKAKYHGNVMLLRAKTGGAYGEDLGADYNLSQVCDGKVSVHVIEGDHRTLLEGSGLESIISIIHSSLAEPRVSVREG
Chain of Diphosphomevalonate decarboxylase (Q9FD53 whole entry): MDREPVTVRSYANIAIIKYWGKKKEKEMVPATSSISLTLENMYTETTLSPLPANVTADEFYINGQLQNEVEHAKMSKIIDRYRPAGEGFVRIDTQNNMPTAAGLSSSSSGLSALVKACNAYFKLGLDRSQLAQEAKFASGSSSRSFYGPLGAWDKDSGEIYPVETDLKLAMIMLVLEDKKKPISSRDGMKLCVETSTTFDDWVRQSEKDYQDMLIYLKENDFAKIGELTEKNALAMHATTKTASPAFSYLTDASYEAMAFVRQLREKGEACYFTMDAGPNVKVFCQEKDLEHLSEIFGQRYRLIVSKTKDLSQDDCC
Chain of Polyadenylate-binding protein 1 (P11940 whole entry): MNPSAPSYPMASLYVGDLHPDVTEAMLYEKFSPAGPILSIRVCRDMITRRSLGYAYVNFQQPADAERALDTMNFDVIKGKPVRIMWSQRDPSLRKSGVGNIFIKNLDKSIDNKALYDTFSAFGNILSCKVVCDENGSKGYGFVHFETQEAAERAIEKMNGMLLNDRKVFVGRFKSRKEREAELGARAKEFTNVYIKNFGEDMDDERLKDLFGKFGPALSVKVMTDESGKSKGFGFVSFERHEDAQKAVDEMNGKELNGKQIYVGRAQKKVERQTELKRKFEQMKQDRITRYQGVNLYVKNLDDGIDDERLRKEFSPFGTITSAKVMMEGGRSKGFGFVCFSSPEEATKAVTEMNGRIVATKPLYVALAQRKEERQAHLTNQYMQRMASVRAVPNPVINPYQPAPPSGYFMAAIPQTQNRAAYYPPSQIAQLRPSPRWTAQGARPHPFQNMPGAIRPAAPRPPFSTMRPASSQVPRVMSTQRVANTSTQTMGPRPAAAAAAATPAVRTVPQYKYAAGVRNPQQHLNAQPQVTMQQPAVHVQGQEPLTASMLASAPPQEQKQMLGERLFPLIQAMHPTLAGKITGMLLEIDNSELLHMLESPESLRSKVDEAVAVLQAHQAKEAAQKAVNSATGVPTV
Chain of Estrogen receptor (P03372 whole entry): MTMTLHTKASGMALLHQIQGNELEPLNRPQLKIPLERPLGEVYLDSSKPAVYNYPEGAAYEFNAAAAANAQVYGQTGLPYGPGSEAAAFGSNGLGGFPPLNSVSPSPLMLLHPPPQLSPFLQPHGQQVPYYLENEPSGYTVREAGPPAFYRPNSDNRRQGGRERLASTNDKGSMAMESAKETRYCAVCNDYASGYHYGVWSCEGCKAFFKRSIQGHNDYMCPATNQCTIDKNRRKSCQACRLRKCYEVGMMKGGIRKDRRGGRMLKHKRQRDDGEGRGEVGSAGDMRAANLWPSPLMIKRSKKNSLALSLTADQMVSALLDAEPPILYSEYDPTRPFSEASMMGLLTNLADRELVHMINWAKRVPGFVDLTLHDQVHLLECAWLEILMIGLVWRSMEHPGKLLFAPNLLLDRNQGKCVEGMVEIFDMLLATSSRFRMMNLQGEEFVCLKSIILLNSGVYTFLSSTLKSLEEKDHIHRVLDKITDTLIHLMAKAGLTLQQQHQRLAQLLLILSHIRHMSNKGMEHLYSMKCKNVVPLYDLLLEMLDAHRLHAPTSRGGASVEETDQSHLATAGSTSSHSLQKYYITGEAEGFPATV

## CCCNC(=O)c1ccc(-n2sc3ccccc3c2=O)cc1
[1]
  IC50: 7.48 µM (active)

## N#Cc1c(NC(=O)c2cc(-n3cnnc3)ccc2Cl)sc2c1CCCC2
[2]
  EC50: 12.7 µM (active)

## CCCOc1ccc(C(=O)C(CN2CCOCC2)c2ccccc2)cc1 (configuration not stated)
[3]
  AC50: > 60 µM (inactive)
[4]
  IC50: 909 nM (active)

## Cc1occc1C(=O)Nc1ccccc1NC(=O)c1ccoc1C
[5]
  IC50: > 50 µM (not active)
[6]
  IC50: > 50 µM (not active)
[7]
  IC50: 155 nM (not active)

## O=C(Nc1cccc(-c2nc3ccccc3[nH]2)c1)c1cccc(NC(=O)c2ccco2)c1
[8]
  EC50: 53.7 µM (active)
[9]
  IC50: 68.5 µM (not active)
[10]
  EC50: 57.9 µM (active)
[11]
  IC50: 5.03 µM (active)
[12]
  IC50: 2.5 µM (active)

## N#Cc1ccc(Nc2nc(-c3ccc(C#N)cc3)cs2)cc1
[13]
  IC50: > 50 µM (not active)
[14]
  IC50: > 50 µM (not active)

## C/N=c1\scc(-c2cccs2)n1/N=C/c1ccc(O)c(O)c1O
[15]
  CC50: > 40 µM (active)
[16]
  IC50: > 100 µM (inactive)
[17]
  EC50: 1.53 µM (active)
[18]
  EC50: 636 nM (active)
[19]
  EC50: > 38 µM (not active)
[20]
  EC50: > 150 µM (inactive)
[21]
  IC50: 98.1 µM (inconclusive)
[22]
  IC50: 70.7 µM (active)
[23]
  IC50: 15.5 µM (active)
[24]
  IC50: 59.2 µM (active)
[25]
  IC50: 7.08 µM (active)
[26]
  AC50: > 100 µM (inactive)
[27]
  CC50: 13 µM (active)
[28]
  CC50: 12.1 µM (active)

## Cc1cc(C)nc(SCC(=O)OCC(=O)c2cc(C)n(Cc3ccccc3)c2C)n1
[29]
  EC50: > 30 µM (not active)

## CCOc1ccc2c(c1)OC(c1ccc(OC)cc1)(C(F)(F)F)NC2=O (configuration not stated)
[30]
  IC50: > 80 µM (inactive)
[31]
  CC50: 13.7 µM (active)

## O=C(CSc1nc2ccccc2o1)c1ccc2c(c1)OCCO2
[32]
  IC50: > 100 µM (inactive)
[33]
  IC50: 18.3 µM (not active)
[34]
  IC50: 11.3 µM (not active)

## COc1ccc(C2CC(c3cccs3)=NN2C(=O)CSc2nc(=O)n3ccc(C)cc3n2)cc1 (configuration not stated)
[35]
  IC50: 7.51 µM (active)
[36]
  IC50: 8.11 µM (active)
[37]
  IC50: > 49.8 µM (not active)

## Cc1ccc2cc3c(NC(=O)c4cccnc4)nn(C)c3nc2c1
[32]
  IC50: > 100 µM (inactive)
[38]
  IC50: > 100 µM (inactive)
[39]
  IC50: > 100 µM (not active)
[40]
  IC50: > 79 µM (inactive)

## CN(C)CCOC(=O)c1cn(Cc2ccccc2)c2ccccc12
[41]
  EC50: > 50 µM (not active)
